Assay results as given in PubChem BioAssay (NCI).
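The compound was tested at five concentrations on cells cultured in 96-well plates, with a 48-hour exposure period. Abbreviation: GI50, concentration required for 50% inhibition of growth. At the TGI there is no net growth.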

Assays:
Experiment in all cases: DTP human tumour cell line panel, 48 h
[1] = tested on: 786-0 renal
[2] = tested on: A498 renal
[3] = tested on: A549 NSCLC
[4] = tested on: ACHN renal
[5] = tested on: CAKI-1 renal
[6] = tested on: CCRF-CEM leukemia
[7] = tested on: COLO 205 colon
[8] = tested on: DU-145 prostate
[9] = tested on: HCC-2998 colon
[10] = tested on: HCT-116 colon
[11] = tested on: HCT-15 colon
[12] = tested on: HL-60(TB) leukemia
[13] = tested on: HOP-62 NSCLC
[14] = tested on: HOP-92 NSCLC
[15] = tested on: HS 578T breast
[16] = tested on: HT29 colon
[17] = tested on: IGROV1 ovarian
[18] = tested on: K-562 leukemia
[19] = tested on: KM12 colon
[20] = tested on: LOX IMVI melanoma
[21] = tested on: M14 melanoma
[22] = tested on: MCF7 breast
[23] = tested on: MDA-MB-231 breast
[24] = tested on: MDA-MB-435
[25] = tested on: MOLT-4 leukemia
[26] = tested on: NCI-H226 lung
[27] = tested on: NCI-H23 lung
[28] = tested on: NCI-H460 lung
[29] = tested on: NCI/ADR-RES ovarian
[30] = tested on: OVCAR-3 ovarian
[31] = tested on: OVCAR-4 ovarian
[32] = tested on: OVCAR-5 ovarian
[33] = tested on: OVCAR-8 ovarian
[34] = tested on: PC-3 prostate
[35] = tested on: RPMI-8226 leukemia
[36] = tested on: SF-268 CNS
[37] = tested on: SF-295 CNS
[38] = tested on: SF-539 CNS
[39] = tested on: SK-MEL-2 melanoma
[40] = tested on: SK-MEL-28 melanoma
[41] = tested on: SK-MEL-5 melanoma
[42] = tested on: SK-OV-3 ovarian
[43] = tested on: SN12C renal
[44] = tested on: SNB-19 CNS
[45] = tested on: SNB-75 CNS
[46] = tested on: SR leukemia
[47] = tested on: SW-620 colon
[48] = tested on: T-47D breast
[49] = tested on: TK-10 renal
[50] = tested on: U251 CNS
[51] = tested on: UACC-257 melanoma
[52] = tested on: UACC-62 melanoma
[53] = tested on: UO-31 renal

COc1cc2[nH]c(C(=O)c3cc(OC)c(OC)c(OC)c3)c(N)c2cc1C#CC1CC1 was tested, and the GI50 [1] was 3.25 µM, the TGI [1] was over 100 µM and the GI50 [2] was 3.23 µM. For the same compound, the TGI [2] was 61.1 µM, the GI50 [3] was 6.65 µM and the TGI [3] was over 100 µM. For the same compound, the GI50 [4] was 1300 nM, the TGI [4] was over 100 µM and the GI50 [5] was 2540 nM. The TGI [5] was over 100 µM, the GI50 [6] was 3.38 µM and the TGI [6] was over 100 µM. It also gave a GI50 [7] of 2400 nM, a TGI [7] of 8.34 µM and a GI50 [8] of 3.33 µM. It also gave a TGI [8] of over 100 µM, a GI50 [9] of 20.1 µM and a TGI [9] of over 100 µM. It also gave a GI50 [10] of 2060 nM, a TGI [10] of 85.3 µM and a GI50 [11] of 2300 nM. It also gave a TGI [11] of over 100 µM, a GI50 [12] of 3.36 µM and a TGI [12] of 22 µM. It also gave a GI50 [13] of 2640 nM, a TGI [13] of over 100 µM and a GI50 [14] of 622 nM. The TGI [14] was 94.5 µM, the GI50 [15] was 3.75 µM and the TGI [15] was over 100 µM. It also gave a GI50 [16] of 3.38 µM, a TGI [16] of 28 µM and a GI50 [17] of 6.01 µM. It also gave a TGI [17] of over 100 µM, a GI50 [18] of 1940 nM and a TGI [18] of over 100 µM. It also gave a GI50 [19] of 2510 nM, a TGI [19] of over 100 µM and a GI50 [20] of 4.33 µM. It also gave a TGI [20] of over 100 µM, a GI50 [21] of 1930 nM and a TGI [21] of over 100 µM. It also gave a GI50 [22] of 1850 nM, a TGI [22] of over 100 µM and a GI50 [23] of 3.9 µM. The TGI [23] was over 100 µM, the GI50 [24] was 332 nM and the TGI [24] was 1170 nM. It also gave a GI50 [25] of 4.32 µM, a TGI [25] of over 100 µM and a GI50 [26] of 22.4 µM. It also gave a TGI [26] of over 100 µM, a GI50 [27] of 7.12 µM and a TGI [27] of over 100 µM. It also gave a GI50 [28] of 3.55 µM, a TGI [28] of over 100 µM and a GI50 [29] of 2300 nM. The TGI [29] was 14.4 µM, the GI50 [30] was 1530 nM and the TGI [30] was 5.74 µM. For the same compound, the GI50 [31] was 4.01 µM, the TGI [31] was over 100 µM and the GI50 [32] was 11.9 µM. It also gave a TGI [32] of over 100 µM, a GI50 [33] of 5.3 µM and a TGI [33] of over 100 µM. For the same compound, the GI50 [34] was 2210 nM, the TGI [34] was over 100 µM and the GI50 [35] was 3.28 µM. For the same compound, the TGI [35] was 42.5 µM, the GI50 [36] was 9.08 µM and the TGI [36] was over 100 µM. The GI50 [37] was 1660 nM, the TGI [37] was over 100 µM and the GI50 [38] was 815 nM. For the same compound, the TGI [38] was 4.77 µM, the GI50 [39] was 5.14 µM and the TGI [39] was over 100 µM. For the same compound, the GI50 [40] was 7.52 µM, the TGI [40] was over 100 µM and the GI50 [41] was 1330 nM. For the same compound, the TGI [41] was 22.4 µM, the GI50 [42] was 3.42 µM and the TGI [42] was over 100 µM. The GI50 [43] was 7.69 µM, the TGI [43] was over 100 µM and the GI50 [44] was 5.85 µM. For the same compound, the TGI [44] was over 100 µM, the GI50 [45] was 1020 nM and the TGI [45] was 3.99 µM. For the same compound, the GI50 [46] was 976 nM, the TGI [46] was over 100 µM and the GI50 [47] was 2900 nM. For the same compound, the TGI [47] was over 100 µM, the GI50 [48] was 3.02 µM and the TGI [48] was over 100 µM. The GI50 [49] was 40 µM, the TGI [49] was over 100 µM and the GI50 [50] was 4.74 µM. The TGI [50] was over 100 µM, the GI50 [51] was over 100 µM and the TGI [51] was over 100 µM. For the same compound, the GI50 [52] was 20.1 µM, the TGI [52] was over 100 µM and the GI50 [53] was 2600 nM. It also gave a TGI [53] of over 100 µM.
